# Experiments:
# [1] = tested on: FADD−/− Jurkat cells; assay: Necroptosis inhibition assay, TNF-α-induced necroptosis (CellTiter-Glo 2.0); format: cell-based, human; settings: TNF-α 15 ng/mL, FADD−/− Jurkat cells; for Necroptosis inhibition assay (Rescue %) 1 μM: compound 1 μM; for Necroptosis inhibition assay (Rescue %) 10 μM: compound 10 μM
# Procedure, shortened: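 Compound is added to cells at final concentrations of 0.1, 1 and 10 μM and left 30 minutes at room temperature. Necroptosis is induced with 15 ng/mL TNF-α, culture continues 20 to 24 hours at 37° C, and ATP-based luminescence reports viability.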
# [2] = target: T1, MLKL (Homo sapiens, UniProt Q8NB16); assay: MLKL degradation assay in HepG2 cell line (western blot); format: cell-based; parameters: endogenous in cells; host or cells: HepG2 or HaCaT; settings: cell line not given; for Degradation assay (Degradation %) 1 μM: compound 1 μM; for Degradation assay (Degradation %) 10 μM: compound 10 μM
# T1 sequence (Q8NB16 1-471): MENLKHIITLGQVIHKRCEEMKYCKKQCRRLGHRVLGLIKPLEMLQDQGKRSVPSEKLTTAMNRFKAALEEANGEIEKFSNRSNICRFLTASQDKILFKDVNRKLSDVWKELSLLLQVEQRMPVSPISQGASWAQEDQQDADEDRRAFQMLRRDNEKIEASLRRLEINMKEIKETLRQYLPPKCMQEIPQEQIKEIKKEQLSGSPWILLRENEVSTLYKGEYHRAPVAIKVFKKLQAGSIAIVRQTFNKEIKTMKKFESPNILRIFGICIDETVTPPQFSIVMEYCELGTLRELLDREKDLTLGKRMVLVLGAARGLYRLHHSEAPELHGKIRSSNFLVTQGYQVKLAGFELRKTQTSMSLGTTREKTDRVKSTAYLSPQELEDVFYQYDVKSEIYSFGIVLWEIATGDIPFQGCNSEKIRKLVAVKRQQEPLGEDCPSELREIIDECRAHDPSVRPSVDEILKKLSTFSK
# Procedure, shortened: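 Chemiluminescent western blot signal reports remaining MLKL protein in HepG2 cells after 20-24 h treatment with compound at a final 1 or 10 μM. Equal protein (10-15 μg, BCA) is loaded per lane.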
# [3] = target: T1, MLKL; assay: Measurement of binding affinity with MLKL receptor (competitive binding assay, Kd); parameters: made in house; host or cells: HEK 293 cell line (T7 phage in E. coli BL21-derived host is also described)
# Procedure, shortened: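 Kd from an immobilized-ligand competition format: the DNA-tagged kinase from HEK 293 expression is eluted and quantified by qPCR. Compounds added from 111× DMSO stocks, final DMSO 0.9%.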
Structure (SMILES),Necroptosis inhibition assay (Rescue %) 1 μM [1] [%],Necroptosis inhibition assay (Rescue %) 10 μM [1] [%],Degradation assay (Degradation %) 1 μM [2] [%],Degradation assay (Degradation %) 10 μM [2] [%],Kd [3] [nM]
"Nc1ncc(-c2cnn(C3CCN(CCC4CCN(C(=O)c5ccc6c(c5)CN(C5CCC(=O)NC5=O)C6=O)CC4)CC3)c2)nc1C(=O)O[C@@H](C(=O)Nc1ccc(F)cc1)c1ccccc1 (stereo partly drawn) [TDH-547, (R)-2-((4-fluorophenyl)amino)-2-oxo-1-phenylethyl 3-amino-6-(1-(1-(2-(1-(2-(2,6-dioxopiperidin-3-yl)-1-oxoisoindoline-5-carbonyl)piperidin-4-yl)ethyl)piperidin-4-yl)-1H-pyrazol-4-yl)pyrazine-2-carboxylate]",35.18,19.80,93.36,68.21,0.43
"Nc1ncc(-c2cnn(C3CCN(C4CC5(CCN(CC6CCN(C(=O)c7ccc8c(c7)CN(C7CCC(=O)NC7=O)C8=O)CC6)CC5)C4)CC3)c2)nc1C(=O)O[C@@H](C(=O)Nc1ccc(F)cc1)c1ccccc1 (stereo partly drawn) [TDH-548, (R)-2-((4-fluorophenyl)amino)-2-oxo-1-phenylethyl 3-amino-6-(1-(1-(7-((1-(2-(2,6-dioxopiperidin-3-yl)-1-oxoisoindoline-5-carbonyl)piperidin-4-yl)methyl)-7-azaspiro[3.5]nonan-2-yl)piperidin-4-yl)-1H-pyrazol-4-yl)pyrazine-2-carboxylate]",64.86,31.41,89.05,85.68,0.19
"Nc1ncc(-c2cnn(C3CCN(CCOC4CCN(C(=O)c5ccc6c(c5)CN(C5CCC(=O)NC5=O)C6=O)CC4)CC3)c2)nc1C(=O)O[C@@H](C(=O)Nc1ccc(F)cc1)c1ccccc1 (stereo partly drawn) [TDH-549, (R)-2-((4-fluorophenyl)amino)-2-oxo-1-phenylethyl 3-amino-6-(1-(1-(2-((1-(2-(2,6-dioxopiperidin-3-yl)-1-oxoisoindoline-5-carbonyl)piperidin-4-yl)oxy)ethyl)piperidin-4-yl)-1H-pyrazol-4-yl)pyrazine-2-carboxylate]",35.84,25.21,84.54,34.92,0.64
"Nc1ncc(-c2cnn(C3CCN(CC4CCN(CC5CCN(C(=O)c6ccc7c(c6)CN(C6CCC(=O)NC6=O)C7=O)CC5)CC4)CC3)c2)nc1C(=O)O[C@@H](C(=O)Nc1ccc(F)cc1)c1ccccc1 (stereo partly drawn) [TDH-550, (R)-2-((4-fluorophenyl)amino)-2-oxo-1-phenylethyl 3-amino-6-(1-(1-((1-((1-(2-(2,6-dioxopiperidin-3-yl)-1-oxoisoindoline-5-carbonyl)piperidin-4-yl)methyl)piperidin-4-yl)methyl)piperidin-4-yl)-1H-pyrazol-4-yl)pyrazine-2-carboxylate]",47.98,20.62,88.92,86.09,0.53
"Nc1ncc(-c2cnn(C3CCN(CCCN4CCN(C(=O)c5ccc6c(N7CCC(=O)NC7=O)coc6c5)CC4)CC3)c2)nc1C(=O)O[C@@H](C(=O)Nc1ccc(F)cc1)c1ccccc1 [TDH-551, (R)-2-((4-fluorophenyl)amino)-2-oxo-1-phenylethyl 3-amino-6-(1-(1-(3-(4-(3-(2,4-dioxotetrahydropyrimidin-1(2H)-yl)benzofuran-6-carbonyl)piperazin-1-yl)propyl)piperidin-4-yl)-1H-pyrazol-4-yl)pyrazine-2-carboxylate]",40.61,10.85,88.03,83.80,0.3
"Nc1ncc(-c2cnn(C3CCN(CCC4CCN(C(=O)c5ccc6c(N7CCC(=O)NC7=O)coc6c5)CC4)CC3)c2)nc1C(=O)O[C@@H](C(=O)Nc1ccc(F)cc1)c1ccccc1 [TDH-552, (R)-2-((4-fluorophenyl)amino)-2-oxo-1-phenylethyl 3-amino-6-(1-(1-(2-(1-(3-(2,4-dioxotetrahydropyrimidin-1(2H)-yl)benzofuran-6-carbonyl)piperidin-4-yl)ethyl)piperidin-4-yl)-1H-pyrazol-4-yl)pyrazine-2-carboxylate]",31.97,6.25,92.21,75.10,0.41
"Nc1ncc(-c2cnn(C3CCN(C4CC5(CCN(CC6CCN(C(=O)c7ccc8c(N9CCC(=O)NC9=O)coc8c7)CC6)CC5)C4)CC3)c2)nc1C(=O)O[C@@H](C(=O)Nc1ccc(F)cc1)c1ccccc1 [TDH-553, (R)-2-((4-fluorophenyl)amino)-2-oxo-1-phenylethyl 3-amino-6-(1-(1-(7-((1-(3-(2,4-dioxotetrahydropyrimidin-1(2H)-yl)benzofuran-6-carbonyl)piperidin-4-yl)methyl)-7-azaspiro[3.5]nonan-2-yl)piperidin-4-yl)-1H-pyrazol-4-yl)pyrazine-2-carboxylate]",58.63,−20.56,84.21,91.57,0.31
"Nc1ncc(-c2cnn(C3CCN(CCOC4CCN(C(=O)c5ccc6c(N7CCC(=O)NC7=O)coc6c5)CC4)CC3)c2)nc1C(=O)O[C@@H](C(=O)Nc1ccc(F)cc1)c1ccccc1 [TDH-554, (R)-2-((4-fluorophenyl)amino)-2-oxo-1-phenylethyl 3-amino-6-(1-(1-(2-((1-(3-(2,4-dioxotetrahydropyrimidin-1(2H)-yl)benzofuran-6-carbonyl)piperidin-4-yl)oxy)ethyl)piperidin-4-yl)-1H-pyrazol-4-yl)pyrazine-2-carboxylate]",39.53,14.16,83.95,70.50,0.43
"Nc1ncc(-c2cnn(C3CCN(CC4CCN(CC5CCN(C(=O)c6ccc7c(N8CCC(=O)NC8=O)coc7c6)CC5)CC4)CC3)c2)nc1C(=O)O[C@@H](C(=O)Nc1ccc(F)cc1)c1ccccc1 [TDH-555, (R)-2-((4-fluorophenyl)amino)-2-oxo-1-phenylethyl 3-amino-6-(1-(1-((1-((1-(3-(2,4-dioxotetrahydropyrimidin-1(2H)-yl)benzofuran-6-carbonyl)piperidin-4-yl)methyl)piperidin-4-yl)methyl)piperidin-4-yl)-1H-pyrazol-4-yl)pyrazine-2-carboxylate]",47.10,−51.39,78.56,,0.22

# Source: patent publication US20240252488A1 (KOREA RESEARCH INSTITUTE OF CHEMICAL TECHNOLOGY, priority 2020, published 2024)
